Assay results as given in patent US20070117157A1, “Parathyroid hormone-like polypeptides” (priority 2002, published 2007).
Entries after “also recorded” stand apart in the source; their conditions may differ. One block for each substance: values may come before it.

Assays:
[1] = tested on: UMR106.01 cells; assay: cAMP production (adenylate cyclase response) in UMR106.01 cells; format: cell-based; conditions: for cAMP formation by the peptide alone: FIG. 5A/5B; for maximum amplitude of cAMP response: compared with other peptides at highest concentrations
Method: The PTH-like biological activity of the peptides was assayed by measuring cyclic adenosine 3′,5′-monophosphate (cAMP) production in UMR106.01 cells (Forrest et al, Calcif Tissue Int, 37:52-56 (1985)), grown to 90% confluence. Prior to assaying, the cells were washed once with phosphate buffered saline (PBS) and equilibrated for 20 mins in medium containing 0.1% BSA and lmM-isobutylmethylxanthine (Sigma, St Louis, USA). Cells were subsequently stimulated at 37° C for 10 mins in the absence and presence of increasing hormone concentrations. The cells were then washed once with PBS and cAMP was extracted with 1.5 ml acidified ethanol. Samples were evaporated to dryness, reconstituted in assay buffer and assayed by a specific cAMP radioimmunoassay (Houssami et al, Endocrine J. 2:127-134 (1994)).

[2] = biological target: PTH-1R (UniProt P25961); assay: cell-based or functional assay
[3] = tested on: bones of male Sprague-Dawley rats; assay: Anabolic effect on bones of rats (histomorphometry of proximal tibiae); format: in vivo, rat; conditions: for histomorphometric markers of bone resorption: FIG. 11; for osteoblast number per unit osteoid surface: FIG. 10
Method: The anabolic effect of Fugu PTH was assessed in the bones of 50-60 g male Sprague-Dawley rats (3-4 weeks old).
Rats were subcutaneously administered a low or high dose (3 or 10 gg) of Fugu PTH(1-34) per 100 g body weight each day for 30 days. The synthetic PTH peptides were dissolved in 0.01M acetic acid and then daily injections were prepared in normal saline with 2% rat serum (from male Sprague-Dawley rats). The rats were weighed twice a week and the PTH dose adjusted for the increasing weight of each animal.
There were 12 rats in each of the following treatment groups: control, human PTH (low or high dose) and Fugu PTH (low or high dose). Rats were euthanased using asphyxiation and tibiae were removed, leaving most of the muscle on the bone. The samples were placed into freshly prepared 4% paraformaldehyde. They were fixed for 24 hours and then transferred to 70% ethanol in preparation for histomorphometry.
Fixed tibiae were X-rayed and embedded in methylmethacrylate resin as follows: Tibiae were cleaned of muscle, then bisected transversely and trimmed approximately 2 mm on each side using a water cooled slow speed bench saw to provide a flat surface for embedding, parallel to the sagittal midline. Fixed tibiae were dehydrated in acetone by hourly changes of 70% acetone, 90% acetone and 100% acetone (×2). After dehydration, samples were infiltrated with methylmethacrylate resin (85% methylmethacrylate, 15% dibutylphthalate, 0.05% benzoyl peroxide) twice for at least 3 days (minimum total of 6 days). For at least one day of the infiltration procedure, samples were infiltrated under vacuum at room temperature; all other steps were carried out at 4° C. After infiltration, tibiae were embedded in glass scintillation vials on a polymerised methylmethacrylate base in methylmethacrylate resin (85% methylmethacrylate, 15% dibuylphthalate, 3% benzoyl peroxide) in a waterbath in a 37° C. incubator over 48 hours. After polymerisation, a third layer of methacrylate was included (same components as above plus acrylic resin beads) and allowed to polymerise over another 48 hours. After samples were fully polymerised, they were cooled at −20° C. to allow polymer contraction, before the embedded tibiae were released from the glass vials by smashing them with a hammer. Polymerised tibiae were then ground on an electric grinder/ polisher to expose the bone surface, and provide a squared block to sit securely in a microtome. 5 μm sections were cut on a Leica 2165 microtome, spread with 95% ethanol and adhered to glass microscope slides by clamping overnight at 37° C. separated by pieces of bagging plastic. Fully adhered sections were deplasticised in cellosolve for 2×25 minutes, dehydrated in graded ethanols and stained with toluidine blue for standard histomorphometry. Von Kossa staining was carried out to provide composite images.
Histomorphometry was carried out according to standard procedures using the Osteomeasure Image analysis system (Osteometrics, Decatur, Ga.) in the secondary spongiosa, starting 3 mm below the growth plate in a region 3 mm wide by 1.1 mm high. Data was analysed by one-way ANOVA followed by Tukey's post-hoc test to locate significant differences.

[4] = tested on: polyclonal antisera raised against human PTHrP(1-14), human PTHrP(1-141) and hPTH(1-34); assay: Immunoblots (dot blots) with anti-human PTHrP and anti-human PTH antisera; format: binding, rabbit; conditions: 10, 25, 50 μg spotted, data not shown
Description: Seven antisera (R88, R1904, R1942, R87, R1348, R196, R212) were raised against human PTHrP(1-14) and one antiserum (R190) was raised against human PTHrP(1-141). The anti-PTH polyclonal antibody was raised against hPTH(1-34)(BioGenex, San Ramon, USA). The anti-human PTHrP antisera have been used successfully in immunohistochemistry and Western blotting with tissues taken from bony and cartilaginous fishes (Danks et al, Gen Comp Endocrinol, 92:201-212 (1993); Ingleton et al, Gen Comp Endocrinol 98:211-218 (1995)). The anti-PTH antiserum has been used in immunohistochemistry of human parathyroid material and Western blotting (Danks et al, J Pathol, 161:27-33 (1993)). 10, 25, 50 μg of Fugu PTH were spotted along side a positive control, (ie human PTHrP(I-34)), on nitrocellulose membrane (Schleicher & Schuell, Dassel, Germany). After an initial incubation period with Tris buffered saline, 0.2% Tween, 5% skim milk powder to block non specific binding sites, the nitrocellulose membrane was incubated with primary polyclonal antibody, followed by secondary antibody (anti-rabbit serum conjugated to horseradish peroxidase (Dako, Carpenteria, USA)) incubation. Three washes on a shaker table were done in between incubations. A BM chemiluminescence blotting system (Roche Applied Sciences, Mannheim, Germany) was used to detect specific dot blots.

[5] = tested on: PTH-3R; conditions: zebrafish PTH-3R, Rubin et al; cited from earlier work
[6] = 10 microgram/100 gram body weight/day, 30 days, vs untreated control
[7] = high dose 10 microgram/100 gram body weight/day

Chain of UniProt P25961 (P25961 27-591 limits assumed): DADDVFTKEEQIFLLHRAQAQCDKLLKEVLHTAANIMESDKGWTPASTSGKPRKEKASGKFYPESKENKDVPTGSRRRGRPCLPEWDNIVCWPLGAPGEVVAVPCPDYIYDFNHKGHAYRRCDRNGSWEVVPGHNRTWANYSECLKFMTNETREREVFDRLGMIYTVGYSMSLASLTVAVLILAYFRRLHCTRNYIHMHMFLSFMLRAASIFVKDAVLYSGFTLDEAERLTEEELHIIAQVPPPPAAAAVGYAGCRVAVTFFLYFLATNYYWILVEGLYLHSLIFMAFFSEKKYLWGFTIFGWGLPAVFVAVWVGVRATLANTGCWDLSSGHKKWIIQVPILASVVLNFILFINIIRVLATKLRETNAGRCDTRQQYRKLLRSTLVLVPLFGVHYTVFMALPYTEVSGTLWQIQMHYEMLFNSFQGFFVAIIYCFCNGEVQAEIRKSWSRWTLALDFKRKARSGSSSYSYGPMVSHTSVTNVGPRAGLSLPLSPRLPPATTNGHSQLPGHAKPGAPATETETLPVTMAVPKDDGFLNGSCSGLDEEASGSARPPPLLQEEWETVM

Substance: Fugu PTH(1-32): synthetic fragment, amino acids 1-32 of Fugu PTH (TVSEVQLMHNLGEHKQVQERREWLQRRLHGIH)
cAMP formation by the peptide alone [1]: stimulated cAMP formation
maximum amplitude of cAMP response [1]: higher amplitude of maximum cAMP response than Fugu PTHrP(1-34)

ID50 of adenylate cyclase response (FIG. 5B), UMR106.01 cells [2]: 1.5 nM
ID50 of cAMP formation in UMR106.01 cells [2]: 1.4 nM
Substance: Fugu PTHrP(1-34) (peptide)

Substance: TVSEVQLMHNLGEHKQVQERREWLQRRLHGIHPIGLNNDDEPGWGRKGIASRELPNLRDLTPEEIQNALNVLEELLKSQE [Fugu PTH(1-34)]
trabecular bone volume [3, 6]: significant increase
trabecular number [3, 6]: significant increase
trabecular separation [3, 6]: without a reduction
trabecular thickness [3, 6]: significant increase
osteoblast generation ([3]; 10 micrograms/100 grams): increased osteoblast generation
anabolic effect on bone ([3]; 10 micrograms/100 grams, young growing rats): anabolic in young growing rats
histomorphometric markers of bone resorption ([3]; dose not specified): not significantly altered
osteoclast number [3, 7]: trend for reduced osteoclast numbers but this did not reach statistical significance; also recorded: trend towards reduced osteoclast number
osteoblast number per unit osteoid surface [3, 7]: significantly increased
osteoblast proliferation ([3]; low dose 3 microgram/100 gram body weight/day, FIG. 9): trend towards increased osteoblast proliferation
osteoblast number per unit osteoid surface ([3]; low dose 3 microgram/100 gram body weight/day): significantly increased
bone mass / trabecular density in proximal tibiae ([3]; young rats, s.c. daily for 30 days, 3 or 10 microgram/100 gram body weight/day, FIG. 6): increases bone mass in young rats; also recorded: apparent elevation of trabecular density
potency in cAMP assay relative to other peptides [1]: less potent than human PTH(1-34), human PTHrP(1-34) and Fugu PTHrP(1-34)
adenylate cyclase activity on co-incubation with Fugu PTHrP(1-34) ([1]; 100 nM Fugu PTH(1-34) with maximal dose 10 nM Fugu PTHrP(1-34), data not shown): no further increase in adenylate cyclase activity was observed
cAMP formation by the peptide alone [1]: stimulated cAMP formation
potency relative to human PTH or PTHrP ([1]; adenylate cyclase activation on a mammalian target cell): about one-fifth to one-tenth
maximum amplitude of cAMP response [1]: higher amplitude of maximum cAMP response than Fugu PTHrP(1-34); also recorded: significantly greater than that achieved with the highest concentrations of human PTH, human PTHrP or Fugu PTHrP
cross-reactivity with antisera against human PTHrP and human PTH [4]: does not cross-react; also recorded: is not recognised by any of the human PTH or human PTHrP antisera

Substance: human PTH: human parathyroid hormone, comparator peptide in rats (low or high dose); fragment length not stated there [reference compound]
osteoclastogenesis ([3]; 10 microgram/100 gram): mild reduction in osteoclastogenesis
histomorphometric markers of bone formation (osteoblast number and surface) ([3]; dose not specified in legend, FIG. 9): significantly elevated
osteoblast number per unit osteoid surface [3, 7]: significantly increased
histomorphometric markers of bone resorption [3, 7]: significantly reduced
fold less potent than human PTHrP or Fugu PTHrP in receptor activation [5]: 20 fold

Substance: human PTHrP(7-34): human parathyroid hormone-related protein fragment 7-34, co-incubated as inhibitor of the cAMP response [reference compound]
inhibition of the cAMP response to agonist peptides ([1]; increasing concentrations co-incubated with 10 nM Fugu PTH(1-34), 1 nM human PTH(1-34), 0.5 nM Fugu PTHrP(1-34) or 0.5 nM human PTHrP(1-34), data not shown): partial inhibition of the cAMP response
